Source: patent US20230066065A1, “USE OF LOW DOSES OF HYDROXYCHLOROQUINE FOR THE TREATMENT OF LIPIN-1 DEFICIENCY” (Institut National de la Santé et de la Recherche Médicale …, priority 2020, published 2023)
Several values for one entry are separate records, joined by “and”; a condition that tells them apart may be missing. Equal values may be shown once. Entries after “also recorded” stand apart in the source; their conditions may differ.

What was measured:
[1] = test system: Lipin-1 deficient myoblasts; assay: MtDNA levels by qPCR in myoblasts under immunometabolic stress; type: cell-based, human; conditions: myoblasts of P1, P4, P6 and P11; results need to be reproduced
Method: (§1) Human primary myoblasts were isolated and grown as described^19. Briefly, CD56+ myoblasts isolated by flow cytometry cell sorting were maintained in HamF10 medium supplemented with 20% fetal calf serum on culture plates coated with 1% gelatin. To mimic RM, F10 medium was replaced by EBSS ([…]) (4 h) with TLR9 agonist CpGA (ODN2216) at the concentration of 10 μg/ml. Myoblasts were incubated with various HCQ concentrations (0.1 to 10 μM) 18 h before and during myoblasts starvation.
MtDNA levels was performed by using qPCR for the mitochondrial12S gene reported to the nuclear β-actin gene. Quantitative PCR was performed in triplicate using the Light Cycler VIIA7 System (Roche).

[2] = Dosage of Hydroxychloroquine in blood/plasma of treated patients; type: in vivo, human
Method: Clinical and biological parameters were evaluated in parallel of the dosage of HCQ, performed on total blood samples with HPLC. Biological parameter consisted in measuring pro-inflammatory cytokines in plasma with […]. Physical condition included muscle pain (VAS score), quality-of-life assessment (PedsQL™ score), the distance walked during the 6-minute test, the number of steps climbed during the 3-minute test, cardiac function and sub-maximal exercise test. In vitro studies were performed on primary myoblasts from 4 patients and healthy controls. Autophagy was analyzed by measuring the ratio between LC3-II and B-actin by Western Blot. Oxidized DNA was studied by immunofluorescence staining. MtDNA levels was performed by using qPCR.
The dosage of Hydroxychloroquine was performed on total blood samples at a rate of 5 ml per assay tube, using EDTA tubes, and stored at +4° C. (dosages performed in the pharmacology/toxicology Department of the Hospital Cochin and Hospital La Pitié-Salpétrière).

MCP-1 = assay: Plasma cytokine concentration, Cytometric Bead Assay; type: in vivo, human; conditions: all patients tested, following vs prior treatment
Method: (§2) Cytokine concentrations were measured in plasma using a ten-plex Cytometric Bead Assay (CBA) kit from BD Biosciences, according to the manufacturer's instructions, then analyzed by flow cytometry (ARIA II; BD Biosciences) with CBA Analysis Software (FCAP Array version 3.0; Soft Flow, St Louis Park, Minn.). The results were expressed in picograms per milliliter.

IL8 = assay: as above; type: in vivo, human; conditions: all patients tested, following vs prior treatment
Method: as §2

TLR9 = assay: Relative TLR9 expression in myoblasts, RT-qPCR; type: cell-based, human; conditions: patient and control myoblasts; EBSS + CpG-A
Description: FIG. 7.(A-C) Relative TLR9 expression in Lipin-1 deficient and control myoblasts; comparison between basal condition and immunometabolic stress (A-B) and after HCQ treatment compared to immunometabolic stress (C); RT-qPCR. compared to basal condition in myoblasts. GM: growth medium; E: EBSS; C: CpG-A; HCQ: Hydroxychloroquine.
as §1

[3] = test system: patients with Lipin-1 deficiency; assay: Muscle pain (VAS) and quality-of-life (PedsQL) questionnaires; type: in vivo, human
Description: VAS questionnaire was completed by the patient and their parents for evaluating muscle pain, ranged from score 4: not painful, to 40: very painful. Two Quality-of-life assessment ([…]) adapted to the age of the patient were completed by either the patient or their parents. The score ranged from 0: very good quality of life, to 92: very bad quality of life.

[4] = test system: Lipin-1 deficient myoblasts; assay: Oxidized DNA (8-OHdG) immunofluorescence staining in myoblasts under immunometabolic stress; type: cell-based, human
Method: as §1
Imuunofluorescence staining. Oxidized DNA on fixed cells was detected with mouse-anti-8-OHdG (sc-66036, Santa Cruz Biotechnology, IF: 1:100)^54 and analyzed by confocal fluorescence microscopy. Images were recorded on a confocal LSM 700 microscope (Zeiss), with a 63× oil immersion objective and quantification was performed by analyzing cells on the Icy software (v 1.9.5.1 BioImage Analysis unit, Institut Pasteur, France).

[5] = test system: patients with Lipin-1 deficiency; assay: Cardiopulmonary exercise test, cycle ergometer (dQ/dVO2); type: in vivo, human
Method: Patients≥6 years old underwent cardiopulmonary exercise tests (CPETs). CPETs were performed to assess the maximal exercise capacity using a cycle ergometer^11. The CPET data were compared with retrospectively collected data from a population of 21 paired children who required non-invasive cardiac output monitoring because of dyspnoea during exercise or chest pain and were considered healthy at the end of the examinations. Pairing was conducted according to sex and age. Oxygen uptake (VO2) and carbon dioxide output were measured breath-by-breath by an automated system (Sensor Medic, MSE). Measurements were taken at rest and every 20 s throughout exercise and recovery. The exercise test was considered maximal if the patient achieved a respiratory exchange ratio (RER)>1.1 and/or a maximal heart rate>85% of the theoretical maximal heart rate, and/or the oxygen uptake reached a plateau^11. Cardiac output (Q) and stroke volume (SV) were determined noninvasively during the exercise test using a thoracic bioelectrical impedance device (PhysioFlow, PF-05 Lab 1, Manatec Biomedical) as routinely performed in our centre. We calculated the slope of the relationship between cardiac output and oxygen utilization (dQ/dVO2) using measurements of Q and VO2 at rest as well as during submaximal and maximal exercise.

[6] = test system: primary patients myoblasts; type: cell-based, human
Description: Then, we were interested in the dosage og HCQ in vitro in order to analyse the HCQ incorporation in primary patients myoblasts.

[7] = test system: patients with Lipin-1 deficiency; assay: Off open-label use phases 1 and 2 study: number of rhabdomyolysis (RM) episodes under HCQ; type: in vivo, human
Method: Ten patients with Lipin-1 deficiency were progressively enrolled in an off open-label use phases 1 and 2 study to assess safety, clinical, and biological effects of Hydroxychloroquine Sulfate (HCQ). The diagnosis of Lipin-1 disease was confirmed in all patients (Table 1). LPIN1 genotyping was performed by PCR analysis of DNA isolated from blood as previously described^2. The patients presented severe episodes of acute RM (1 to 6) defined as creatine kinase (CK) levels >6 000 U/L (normal<160 U/L), associated with mild viral illness, fasting, or prolonged exercise. Chronic symptoms such as muscle pain, fatigability, exercise intolerance, or more rarely cardiac feature were associated in 6 patients.
The patients were treated with oral HCQ at an initial posology of 6.5 mg/Kg/day in one intake, not exceeding 400 mg/day, with different treatment duration depending on the patient (Table 2). Tablets (200 mg) were proposed to patients over 6 years old, and soluble form to patients under 6 years old.
Efficacy and safety of HCQ in patients were assessed by clinical and biological evaluation determined at baseline before HCQ treatment and at regular intervals after initiation of HCQ treatment (every 3 to 6 months).
The clinical parameters encompassed the RM episode number and several standardized tools based on age at study start: auto evaluations assessing the muscle pain and the quality of life, 6-Minute Walk Test, 3-Minute Step Test, heart ultrasounds, and exercise tolerance test in the subgroup of subjects>6 years old^11.
The patients were treated with oral HCQ at a initial posology of 6.5 mg/Kg/day in one intake, not exceeding 400 mg/day, with different treatment duration depending on the patient (Table 2). The data were collected at the Necker Hospital (Reference Center of Metabolic diseases) during the visits: M0 (before treatment), M3 (3 months treatment), M6 then every 6 months. The efficacy outcome of the treatment was measured by clinical and biological endpoints.

CYP3A4/CYP2C8 = conditions: cited from earlier work
[8] = test system: patients with Lipin-1 deficiency; assay: Echocardiography (LVEF); type: in vivo, human
Method: Echocardiography was performed using a Vivid 9 system (General Electric Vingmed Ultrasound, Horten, Norway). Transducers ([…]) were chosen based on patient size and morphology to obtain the best image resolution. Images were acquired and stored in a digital format by two experienced examiners for offline analysis using EchoPac version 112.0.1 software (General Electric Vingmed). All records were performed while the patient was in sinus rhythm under continuous monitoring via electrocardiogram. All measurements of ventricular dimensions and function were performed according to the guidelines of the American and European Societies of Echocardiography^51.
The global longitudinal strain of the left ventricle was defined as the percentage of change during myocardial deformation and was evaluated through the speckle-tracking method using EchoPac (2D strain Q analysis) version 112.0.1 (General Electric Vingmed)^11.

[9] = test system: LC3-II in Lipin-1 deficient and control myoblasts; assay: Autophagy: LC3-II/B-actin ratio by Western Blot in primary myoblasts under immunometabolic stress (EBSS + CpG-A); type: cell-based, human
Method: as §1
Autophagy measurements. Autophagy was analyzed using the LC3-II/B-actin ratio by Western Blot. The following antibodies used in this study were: mouse-anti-β-actin (sc-81178, Santa Cruz Biotechnology, western blotting (WB): 1:5000), mouse-anti-LC3B (clone 4E12, MBL International, IF: 1:100).

[10] = test system: patients with Lipin-1 deficiency; assay: Evaluation of the tolerance of HCQ (allergy, abdominal pain, eye fundus, retinogram); type: in vivo, human
[11] = test system: patients with Lipin-1 deficiency; assay: 6-Minute Walk Test and 3-Minute Step Test; type: in vivo, human; conditions: patients older than 6 y; versus prior treatment
Method: Muscle function was assessed by walking capacity within a 6-Minute Walk Test (6 MWT)^48,49 and by stair climbing capacity within a 3-Minute Step Test (3 MST)^50. The objectives were to walk and climb steps as far as possible for 6 and 3 minutes respectively.

SMILES: CCN(CCO)CCCC(C)Nc1ccnc2cc(Cl)ccc12.O=S(=O)(O)O (centres unmarked) [HCQ, 2-[[4-[(7-Chloro-4-quinolyl)amino]pentyl]ethylamino] ethanol sulfate (1:1)]
- accumulation of mtDNA under immunometabolic stress [1]: prevents this accumulation
- plasma HCQ levels ([2]; P5 and P6, who experimented RM, oral 6.5 mg/Kg/day): 1000 ng/mL
- Plasma HCQ (μg/L) mean ([2]; patient P1-P10, oral HCQ, mean of visits): 107 µg/L and 724 µg/L and 627 µg/L and 1048 µg/L and 1040 µg/L and 290 µg/L and 610 µg/L and 407 µg/L and 752 µg/L and 318 µg/L
- Plasma HCQ (μg/L) (median) ([2]; patient P1-P10, oral HCQ, median of visits): (107) μg/L and (854) μg/L and (597) μg/L and (955) μg/L and (1092) μg/L and (205) μg/L and (610) μg/L and (367) μg/L and (733) μg/L and 325) μg/L
- Levels of HCQ measured at each visit ([2]; patients other than P5 and P6, oral 6.5 mg/Kg/day): ~400 ng/mL
- plasma level of MCP-1 (MCP-1): reduced
- plasma level of IL8 (IL8): reduced
- TLR9 expression under stress condition (TLR9): variable effect; also recorded: could not decrease TLR9 expression
- VAS pain score, change under treatment ([3]; 2 other patients): no difference
- VAS pain score, median following treatment ([3]; 4 patients, score 4 not painful - 40 very painful, median 12.25 prior treatment): 7
- PedsQL quality-of-life median score under treatment ([3]; 6 patients, 0 very good - 92 very bad, score 25 before treatment): 17.1
- oxDNA levels in myoblasts ([4]; HCQ 0.1 to 10 μM): normalized oxDNA levels
- accumulation of oxDNA under immunometabolic stress ([4]; myoblasts of P1, P4, P6 and P11, EBSS + CpG-A): prevents this accumulation
- dQ/dVO2 ratio after initiation of treatment, global mean ([5]; four patients with abnormal peripheral muscle, baseline means 7, 9.5, 9.1, 7.5): 5.8
- dQ/dVO2 ratio under treatment, mean ([5]; patient P3 with cardiac failure, baseline mean 4): 4.8
- HCQ incorporation in primary myoblasts [6]: HCQ incorporation is effective
- patients without new acute RM under treatment ([7]; of 10 patients, 29 RM prior to treatment): Seven
- RM after resumption of treatment ([7]; patient P1): No other RM was observed
- RM after HCQ disruption ([7]; patient P1, discontinued at M9, within 6 weeks after disruption): underwent extensive RM
- Number of severe RM (CPK > 10k U/L) during treatment ([7]; patient P1-P10, oral HCQ, initial 6.5 mg/Kg/day, treatment duration 12-41 months): 0 (7×) and 1 and 3 and 4
- episodes of RM despite HCQ ([7]; patient P5, context of gastroenteritis): one
- episodes of RM despite HCQ ([7]; patient P6, context of gastroenteritis): two
- benefit effect of HCQ ([7]; patient P7): had not seem to have benefit effect
- share of the HCQ metabolism by CYP3A4/CYP2C8 (CYP3A4/CYP2C8): 80%
- LVEF ([8]; patient P3, M3 of treatment, 45% before): 62%
- LVEF ([8]; patient P3, M6, M9, M12 following treatment): 63%
- LVEF ([8]; patient P3, after they stopped treatment): 55%
- LC3-II accumulation (autophagy blockage) under immunometabolic stress ([9]; HCQ 10 μM, control and patients myoblasts): potentiates LC3-II accumulation
- LC3-II accumulation (autophagy blockage) under immunometabolic stress ([9]; HCQ 0.1 and 1 μM): less deleterious
- Electroretinogramms and eye fundus ([10]; 12 months of treatment, all patients tested): normal
- allergy symptoms with HCQ treatment ([10]; all patients): Any allergy symptoms have been observed
- tolerance of HCQ in patients ([10]; overall): well tolerated
- Side effects associated with HCQ ([10]; patients 5 and 6): abdominal pain
- increase of median score in 3 MST following treatment [11]: 31 steps
- increase of median score in 6 MWT following treatment [11]: ~100 meters
